Like-named read-outs stand apart in the source and are kept apart here.
Experiments:
AChE [1] = target: T1, AChE (Homo sapiens, UniProt P22303); assay: biochemical; details: for inhibition at 2 µM: concentration 2 μM; for inhibition at 10 µM: concentration 10 μM; for inhibition at 50 µM: concentration 50 μM
AChE [2] = target: T1, AChE; details: previous in vitro and in vivo reports; cited from earlier work
[3] = previous studies; cited from earlier work
[4] = read-out: Inhibition (%) of AChE
[5] = Ellman method, pH 8.0, triplicate, read-out: IC50 (AChE-inhibitory activity)

T1 sequence (P22303 32-614): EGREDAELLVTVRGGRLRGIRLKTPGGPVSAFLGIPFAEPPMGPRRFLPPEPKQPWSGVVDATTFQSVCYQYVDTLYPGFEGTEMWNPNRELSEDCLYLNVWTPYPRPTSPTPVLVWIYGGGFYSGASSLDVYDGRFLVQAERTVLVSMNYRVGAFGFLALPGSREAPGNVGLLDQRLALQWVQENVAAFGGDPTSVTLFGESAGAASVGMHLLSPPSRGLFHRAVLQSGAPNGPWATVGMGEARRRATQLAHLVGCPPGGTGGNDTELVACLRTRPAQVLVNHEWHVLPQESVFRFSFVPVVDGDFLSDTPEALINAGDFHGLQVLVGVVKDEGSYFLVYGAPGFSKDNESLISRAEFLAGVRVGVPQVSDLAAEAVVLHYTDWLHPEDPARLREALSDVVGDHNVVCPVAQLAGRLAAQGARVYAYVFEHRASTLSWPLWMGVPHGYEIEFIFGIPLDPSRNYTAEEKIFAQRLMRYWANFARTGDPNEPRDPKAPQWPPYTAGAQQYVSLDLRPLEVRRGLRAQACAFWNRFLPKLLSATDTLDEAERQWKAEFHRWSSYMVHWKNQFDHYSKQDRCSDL

COc1ccc2cc3[n+](cc2c1OC)CCc1cc2c(cc1-3)OCO2 [berberine, reference compound]
inhibition at 0.04 µM (AChE [1]; [4]): 20.7%
inhibition at 0.2 µM (AChE [1]; [4]): 73.4%
inhibition at 1 µM (AChE [1]; [4]): 95.8%

COc1cc(/C=C/C=C/C(=O)CCc2ccc(O)cc2)ccc1O [Compound 4, tsaokoarylone]
IC50 (AChE [1]; [5]): 31.1 µM
inhibition at 2 µM (AChE [1]): -11.9%
inhibition at 10 µM (AChE [1]): 30.8%
inhibition at 50 µM (AChE [1]): 78.7%

O=C(O)C1=CC[C@@H](O)[C@H]2CCC[C@@H]12 (relative stereo) [Compound 1, rel-(1R,5R,6S)-5-hydroxybicyclo[4.3.0]non-2-ene-2-carboxylic acid]
IC50 (AChE [1]; [5]): 32.8 µM
inhibition at 2 µM (AChE [1]): 2.09%
inhibition at 10 µM (AChE [1]): 29.5%
inhibition at 50 µM (AChE [1]): 70.9%

COc1cc(C=O)ccc1O [Compound 3, vanillin]
IC50 (AChE [1]): 39.3 µM
inhibition at 2 µM (AChE [1]): -1.88%
inhibition at 10 µM (AChE [1]): 6.07%
AChE-inhibitory activities (AChE [2]): has AChE-inhibitory activities

O=CC1=CC[C@@H](O)[C@H]2CCC[C@@H]12 (relative stereo) [Compound 2, rel-(1R,5R,6S)-5-hydroxybicyclo[4,3,0]non-2-ene-2-carboxaldehyde]
Antifungal activity [3]: weak antifungal activity
IC50 (AChE [1]; [5]): 41.7 µM
inhibition at 2 µM (AChE [1]): -6.07%
inhibition at 10 µM (AChE [1]): 7.74%
inhibition at 50 µM (AChE [1]): 62.1%

— article PMC10059965, “Tsaokoic Acid: A New Bicyclic Nonene from the Fruits of Amomum tsao-ko with Acetylcholinesterase Inhibitory Activity” (Molecules, 2023)
